Measurements as given in PubChem BioAssay (NCI).
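Values below derive from 48-hour exposures of cells grown in 96-well plates, with endpoints linearly interpolated between the two concentrations bracketing the appropriate inhibition level. TGI is the concentration that stops growth completely.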

How the values were obtained:
Assay in all cases: DTP human tumour cell line panel, 48 h
MALME-3M melanoma = test system: MALME-3M melanoma
CAKI-1 renal = test system: CAKI-1 renal
UO-31 renal = test system: UO-31 renal
786-0 renal = test system: 786-0 renal
SN12C renal = test system: SN12C renal
SW-620 colon = test system: SW-620 colon
DU-145 prostate = test system: DU-145 prostate
SF-539 CNS = test system: SF-539 CNS
MDA-MB-435 = test system: MDA-MB-435
SK-MEL-2 melanoma = test system: SK-MEL-2 melanoma
KM12 colon = test system: KM12 colon
EKVX NSCLC = test system: EKVX NSCLC
K-562 leukemia = test system: K-562 leukemia
OVCAR-8 ovarian = test system: OVCAR-8 ovarian
MDA-N = test system: MDA-N
U251 CNS = test system: U251 CNS
PC-3 prostate = test system: PC-3 prostate
NCI/ADR-RES ovarian = test system: NCI/ADR-RES ovarian
MDA-MB-231 breast = test system: MDA-MB-231 breast
COLO 205 colon = test system: COLO 205 colon
HCT-15 colon = test system: HCT-15 colon
UACC-62 melanoma = test system: UACC-62 melanoma
HCT-116 colon = test system: HCT-116 colon
MOLT-4 leukemia = test system: MOLT-4 leukemia
NCI-H522 lung = test system: NCI-H522 lung
HOP-92 NSCLC = test system: HOP-92 NSCLC
SNB-19 CNS = test system: SNB-19 CNS
HT29 colon = test system: HT29 colon
ACHN renal = test system: ACHN renal
HOP-62 NSCLC = test system: HOP-62 NSCLC
NCI-H460 lung = test system: NCI-H460 lung
RXF 393 renal = test system: RXF 393 renal
NCI-H226 lung = test system: NCI-H226 lung
UACC-257 melanoma = test system: UACC-257 melanoma
HS 578T breast = test system: HS 578T breast
IGROV1 ovarian = test system: IGROV1 ovarian
MCF7 breast = test system: MCF7 breast
OVCAR-3 ovarian = test system: OVCAR-3 ovarian
T-47D breast = test system: T-47D breast
M14 melanoma = test system: M14 melanoma
SF-295 CNS = test system: SF-295 CNS
HCC-2998 colon = test system: HCC-2998 colon
SF-268 CNS = test system: SF-268 CNS
TK-10 renal = test system: TK-10 renal
A549 NSCLC = test system: A549 NSCLC
SR leukemia = test system: SR leukemia
OVCAR-4 ovarian = test system: OVCAR-4 ovarian
LOX IMVI melanoma = test system: LOX IMVI melanoma
NCI-H23 lung = test system: NCI-H23 lung
SK-MEL-28 melanoma = test system: SK-MEL-28 melanoma
OVCAR-5 ovarian = test system: OVCAR-5 ovarian
RPMI-8226 leukemia = test system: RPMI-8226 leukemia
SK-MEL-5 melanoma = test system: SK-MEL-5 melanoma
BT-549 breast = test system: BT-549 breast
CCRF-CEM leukemia = test system: CCRF-CEM leukemia
A498 renal = test system: A498 renal
SK-OV-3 ovarian = test system: SK-OV-3 ovarian
SNB-75 CNS = test system: SNB-75 CNS

Structure (SMILES): c1ccc(/C(=N/Nc2nc3ccccc3s2)C2CCCCC2)nc1
- TGI (MALME-3M melanoma): 20.9 µM
- TGI (CAKI-1 renal): 21.6 µM
- TGI (UO-31 renal): 15.4 µM
- TGI (786-0 renal): 21.9 µM
- TGI (SN12C renal): 22.7 µM
- TGI (SW-620 colon): 20.1 µM
- TGI (DU-145 prostate): 34.2 µM
- TGI (SF-539 CNS): 27.5 µM
- TGI (MDA-MB-435): 39.3 µM
- TGI (SK-MEL-2 melanoma): 32.3 µM
- TGI (KM12 colon): 29.6 µM
- TGI (EKVX NSCLC): 25.5 µM
- TGI (K-562 leukemia): 70 µM
- TGI (OVCAR-8 ovarian): 14.3 µM
- TGI (MDA-N): 34.2 µM
- TGI (U251 CNS): 35.9 µM
- TGI (PC-3 prostate): 24.3 µM
- TGI (NCI/ADR-RES ovarian): 10.3 µM
- TGI (MDA-MB-231 breast): 27.3 µM
- TGI (COLO 205 colon): 13.1 µM
- TGI (HCT-15 colon): 15.8 µM
- TGI (UACC-62 melanoma): 31.3 µM
- TGI (HCT-116 colon): 14.8 µM
- TGI (MOLT-4 leukemia): 27.8 µM
- TGI (NCI-H522 lung): 7.32 µM
- TGI (HOP-92 NSCLC): 22.1 µM
- TGI (SNB-19 CNS): 30.6 µM
- TGI (HT29 colon): 16.1 µM
- TGI (ACHN renal): 19.3 µM
- TGI (HOP-62 NSCLC): 23.5 µM
- TGI (NCI-H460 lung): 26.1 µM
- TGI (RXF 393 renal): 24.8 µM
- TGI (NCI-H226 lung): 27.5 µM
- TGI (UACC-257 melanoma): 17.5 µM
- TGI (HS 578T breast): 50 µM
- TGI (IGROV1 ovarian): 16.5 µM
- TGI (MCF7 breast): 6.01 µM
- TGI (OVCAR-3 ovarian): 7.6 µM
- TGI (T-47D breast): 15.5 µM
- TGI (M14 melanoma): 27.7 µM
- TGI (SF-295 CNS): 29.9 µM
- TGI (HCC-2998 colon): 0.0519 µM
- TGI (SF-268 CNS): 25 µM
- TGI (TK-10 renal): 14.5 µM
- TGI (A549 NSCLC): 76.1 µM
- TGI (SR leukemia): 16.8 µM
- TGI (OVCAR-4 ovarian): 22.3 µM
- TGI (LOX IMVI melanoma): 54.3 µM
- TGI (NCI-H23 lung): 21.8 µM
- TGI (SK-MEL-28 melanoma): 25.8 µM
- TGI (OVCAR-5 ovarian): 14.4 µM
- TGI (RPMI-8226 leukemia): 21.9 µM
- TGI (SK-MEL-5 melanoma): 18.9 µM
- TGI (BT-549 breast): 35.1 µM
- TGI (CCRF-CEM leukemia): 15.4 µM
- TGI (A498 renal): 31.4 µM
- TGI (SK-OV-3 ovarian): 18.7 µM

Structure (SMILES): CCOC(=O)c1ccc(-n2[nH]nc(C(N)=O)c2=O)cc1
- TGI (MALME-3M melanoma): > 100 µM
- TGI (CAKI-1 renal): > 100 µM
- TGI (UO-31 renal): > 100 µM
- TGI (786-0 renal): > 100 µM
- TGI (SN12C renal): > 100 µM
- TGI (SW-620 colon): > 100 µM
- TGI (DU-145 prostate): > 100 µM
- TGI (MDA-MB-435): > 100 µM
- TGI (SK-MEL-2 melanoma): > 100 µM
- TGI (KM12 colon): > 100 µM
- TGI (EKVX NSCLC): > 100 µM
- TGI (K-562 leukemia): > 100 µM
- TGI (OVCAR-8 ovarian): > 100 µM
- TGI (MDA-N): > 100 µM
- TGI (U251 CNS): > 100 µM
- TGI (PC-3 prostate): > 100 µM
- TGI (NCI/ADR-RES ovarian): > 100 µM
- TGI (MDA-MB-231 breast): > 100 µM
- TGI (COLO 205 colon): > 100 µM
- TGI (HCT-15 colon): > 100 µM
- TGI (UACC-62 melanoma): > 100 µM
- TGI (HCT-116 colon): > 100 µM
- TGI (MOLT-4 leukemia): > 100 µM
- TGI (NCI-H522 lung): > 100 µM
- TGI (SNB-19 CNS): > 100 µM
- TGI (HT29 colon): > 100 µM
- TGI (ACHN renal): > 100 µM
- TGI (HOP-62 NSCLC): > 100 µM
- TGI (NCI-H460 lung): > 100 µM
- TGI (RXF 393 renal): > 100 µM
- TGI (NCI-H226 lung): > 100 µM
- TGI (UACC-257 melanoma): > 100 µM
- TGI (HS 578T breast): > 100 µM
- TGI (IGROV1 ovarian): > 100 µM
- TGI (MCF7 breast): > 100 µM
- TGI (OVCAR-3 ovarian): > 100 µM
- TGI (T-47D breast): > 100 µM
- TGI (M14 melanoma): > 100 µM
- TGI (SF-295 CNS): > 100 µM
- TGI (HCC-2998 colon): > 100 µM
- TGI (SF-268 CNS): > 100 µM
- TGI (TK-10 renal): > 100 µM
- TGI (A549 NSCLC): > 100 µM
- TGI (OVCAR-4 ovarian): > 100 µM
- TGI (NCI-H23 lung): > 100 µM
- TGI (SK-MEL-28 melanoma): > 100 µM
- TGI (OVCAR-5 ovarian): > 100 µM
- TGI (RPMI-8226 leukemia): > 100 µM
- TGI (SK-MEL-5 melanoma): > 100 µM
- TGI (BT-549 breast): > 100 µM
- TGI (CCRF-CEM leukemia): > 100 µM
- TGI (SNB-75 CNS): > 100 µM
- TGI (SK-OV-3 ovarian): > 100 µM
